In patent publication US8097635B2, “Insulin resistance improving agent” (Kyowa Hakko Bio Co., Ltd., priority 2006, dated 2012):

What was measured:
Type in all cases: in vivo
[1] = system: BKS. Cg-+Lepr^db/+Lepr^db/JcI mice (type II diabetes model mice); experiment: Fasting serum insulin concentration on day 32, Test Example 1; conditions: for Insulin concentration: day 32 after initiation of test, 10 mL/kg orally once a day
Description: Twenty seven (27) BKS. Cg-+Lepr^db/+Lepr^db/JcI mice (Clea Japan Inc., female, 7 week old), which were type II diabetes model mice expressing the symptoms of hyperinsulinemia due to insulin resistance, were divided into 3 groups each consisting of 9 mice. The groups were designated as group 1, group 2, and group 3. Mice of the groups 1 to 3 were fed with free access to pellets CE-2 (Clea Japan Inc.; hereinafter referred to as “CE-2”) for feeding mice and rats. To the mice of group 1, 0.5 w/v % methyl cellulose (0.5 w/v % methyl cellulose 400 cP solution, sterilized, produced by Wako Pure Chemical Industries, Ltd. for biochemistry; hereinafter referred to as “0.5% MC”) was administered orally once a day (10 mL/kg). To the mice of group 2, a pyrroloquinoline quinone disodium salt (hereinafter referred to as “PQQ disodium salt,” produced by Mitsubishi Gas Chemical Company, Inc.) suspended in 0.5% MC to a concentration of 0.5 mg/mL was administered orally once a day (10 mL/kg). To the mice of group 3, a PQQ disodium salt suspended in 0.5% MC to a concentration of 2 mg/mL was administered orally once a day (10 mL/kg). Blood was collected from the orbital veins on day 14 and day 28 after the initiation of the test, and thus serum was obtained. Nonfasting blood serum glucose levels and nonfasting serum insulin concentrations were separately measured using a glucose C-II Test Wako (produced by Wako Pure Chemical Industries, Ltd.) and a Mouse Insulin ELISA Kit (S-type) (produced by Shibayagi Co., Ltd.), respectively. […] Blood glucose levels were measured using a Medisafe Reader GR-101 (produced by Terumo Corporation). […] Blood serum glucose levels and serum insulin concentrations were separately measured using a glucose C-II Test Wako and a Mouse Insulin ELISA Kit (S-type), respectively. The results were expressed as average levels±standard deviation (n=9). […]

[2] = system: BKS. Cg-+Lepr^db/+Lepr^db/JcI mice (type II diabetes model mice); experiment: Glucose tolerance test, Test Example 1; conditions: for Blood glucose level: glucose tolerance test day 29, glucose 2 g/kg orally after 18 h fasting, 10 mL/kg orally once a day
Description: (§1) Twenty seven (27) BKS. Cg-+Lepr^db/+Lepr^db/JcI mice (Clea Japan Inc., female, 7 week old), which were type II diabetes model mice expressing the symptoms of hyperinsulinemia due to insulin resistance, were divided into 3 groups each consisting of 9 mice. The groups were designated as group 1, group 2, and group 3. Mice of the groups 1 to 3 were fed with free access to pellets CE-2 (Clea Japan Inc.; hereinafter referred to as “CE-2”) for feeding mice and rats. To the mice of group 1, 0.5 w/v % methyl cellulose (0.5 w/v % methyl cellulose 400 cP solution, sterilized, produced by Wako Pure Chemical Industries, Ltd. for biochemistry; hereinafter referred to as “0.5% MC”) was administered orally once a day (10 mL/kg). To the mice of group 2, a pyrroloquinoline quinone disodium salt (hereinafter referred to as “PQQ disodium salt,” produced by Mitsubishi Gas Chemical Company, Inc.) suspended in 0.5% MC to a concentration of 0.5 mg/mL was administered orally once a day (10 mL/kg). To the mice of group 3, a PQQ disodium salt suspended in 0.5% MC to a concentration of 2 mg/mL was administered orally once a day (10 mL/kg). Blood was collected from the orbital veins on day 14 and day 28 after the initiation of the test, and thus serum was obtained. Nonfasting blood serum glucose levels and nonfasting serum insulin concentrations were separately measured using a glucose C-II Test Wako (produced by Wako Pure Chemical Industries, Ltd.) and a Mouse Insulin ELISA Kit (S-type) (produced by Shibayagi Co., Ltd.), respectively. After 18 hours of fasting from day 28 to day 29 after the initiation of the test, a 40% (w/v) glucose aqueous solution was administered orally to each mouse at 2 g/kg B.W., so as to load the mice with glucose (to test the glucose tolerance). Blood was collected from tail veins at the time of administration of a glucose aqueous solution (0 minute) and then at a certain time point after administration (120 minutes). Blood glucose levels were measured using a Medisafe Reader GR-101 (produced by Terumo Corporation). […] Blood serum glucose levels and serum insulin concentrations were separately measured using a glucose C-II Test Wako and a Mouse Insulin ELISA Kit (S-type), respectively. The results were expressed as average levels±standard deviation (n=9). Statistical significance levels (p-values) were found by a t-test (group 1 with respect to group 2; and group 1 with respect to group 3).

[3] = system: BKS. Cg-+Lepr^db/+Lepr^db/JcI mice (type II diabetes model mice); experiment: Fasting blood serum glucose level on day 32, Test Example 1; conditions: for Blood glucose level: fasting, day 32 after initiation of test, 10 mL/kg orally once a day; for Fasting blood glucose levels compared with group 1 (0.5% MC): day 32
Description: as §1

[4] = system: BKS. Cg-+Lepr^db/+Lepr^db/JcI mice (type II diabetes model mice); experiment: Nonfasting blood serum glucose level, Test Example 1; conditions: for Blood glucose level: non-fasting, 10 mL/kg orally once a day
Description: as §1

[5] = system: BKS. Cg-+Lepr^db/+Lepr^db/JcI mice (type II diabetes model mice); experiment: Test Example 1 overall conclusion (insulin resistance, type II diabetes, body weight); conditions: Test Example 1, oral once a day for about 32 days
Description: Twenty seven (27) BKS. Cg-+Lepr^db/+Lepr^db/JcI mice (Clea Japan Inc., female, 7 week old), which were type II diabetes model mice expressing the symptoms of hyperinsulinemia due to insulin resistance, were divided into 3 groups each consisting of 9 mice. The groups were designated as group 1, group 2, and group 3. Mice of the groups 1 to 3 were fed with free access to pellets CE-2 (Clea Japan Inc.; hereinafter referred to as “CE-2”) for feeding mice and rats. To the mice of group 1, 0.5 w/v % methyl cellulose (0.5 w/v % methyl cellulose 400 cP solution, sterilized, produced by Wako Pure Chemical Industries, Ltd. for biochemistry; hereinafter referred to as “0.5% MC”) was administered orally once a day (10 mL/kg). […] Nonfasting blood serum glucose levels and nonfasting serum insulin concentrations were separately measured using a glucose C-II Test Wako (produced by Wako Pure Chemical Industries, Ltd.) and a Mouse Insulin ELISA Kit (S-type) (produced by Shibayagi Co., Ltd.), respectively. […] Blood glucose levels were measured using a Medisafe Reader GR-101 (produced by Terumo Corporation). […] Blood serum glucose levels and serum insulin concentrations were separately measured using a glucose C-II Test Wako and a Mouse Insulin ELISA Kit (S-type), respectively. The results were expressed as average levels±standard deviation (n=9). […]

[6] = system: type II diabetes model KK-AY/Ta JcI mice; experiment: Glucose tolerance test, Test Example 2; conditions: for Blood glucose level: glucose tolerance test day 15, glucose 1 g/kg orally after 18 h fasting, 10 mL/kg orally once a day; for Blood glucose levels in glucose tolerance test compared with group 1 (0.5% MC): 30, 60 and 120 minutes after glucose
Method: Eighteen type II diabetes model KK-AY/Ta JcI mice (Clea Japan Inc., male, 6 week old) were divided into 3 groups (6 mice in group 1, 7 mice in group 2, and 5 mice in group 3). The groups were designated as group 1, group 2, and group 3, respectively. Mice of the groups 1 to 3 were fed with free access to pellets CE-2 for feeding mice and rats. To the mice of group 1, 0.5% MC was administered orally once a day (10 mL/kg). To the mice of group 2, a PQQ disodium salt suspended in 0.5% MC to a concentration of 0.5 mg/mL was administered orally once a day (10 mL/kg). To the mice of group 3, a PQQ disodium salt suspended in 0.5% MC to a concentration of 2 mg/mL was administered orally once a day (10 mL/kg). After 18 hours of fasting from day 14 to day 15 after the initiation of the test, a 10% (w/v) glucose aqueous solution was administered orally to each mouse at 1 g/kg B.W., so as to load the mice with glucose to test the glucose tolerance. Blood was collected from tail veins at 0 minutes, 30 minutes, 60 minutes, and 120 minutes after administration of the glucose aqueous solution. Blood glucose levels were measured using a Medisafe Reader GR-101 (produced by Terumo Corporation). […] Blood glucose levels were expressed as average levels±standard deviation (n=5-7) and statistical significance levels (p-values) were found by a t-test (group 1 with respect to group 2; and group 1 with respect to group 3).

[7] = system: BKS. Cg-+Lepr^db/+Lepr^db/JcI mice (type II diabetes model mice); experiment: Nonfasting serum insulin concentration, Test Example 1; conditions: for Serum insulin concentration: non-fasting, 10 mL/kg orally once a day
Description: as §1

[8] = Body weight of type II diabetes model mice, Test Example 1; conditions: for Body weight: 10 mL/kg orally once a day
Description: Twenty seven (27) BKS. Cg-+Lepr^db/+Lepr^db/JcI mice (Clea Japan Inc., female, 7 week old), which were type II diabetes model mice expressing the symptoms of hyperinsulinemia due to insulin resistance, were divided into 3 groups each consisting of 9 mice. The groups were designated as group 1, group 2, and group 3.
Mice of the groups 1 to 3 were fed with free access to pellets CE-2 (Clea Japan Inc.; hereinafter referred to as “CE-2”) for feeding mice and rats. To the mice of group 1, 0.5 w/v % methyl cellulose (0.5 w/v % methyl cellulose 400 cP solution, sterilized, produced by Wako Pure Chemical Industries, Ltd. for biochemistry; hereinafter referred to as “0.5% MC”) was administered orally once a day (10 mL/kg). To the mice of group 2, a pyrroloquinoline quinone disodium salt (hereinafter referred to as “PQQ disodium salt,” produced by Mitsubishi Gas Chemical Company, Inc.) suspended in 0.5% MC to a concentration of 0.5 mg/mL was administered orally once a day (10 mL/kg). To the mice of group 3, a PQQ disodium salt suspended in 0.5% MC to a concentration of 2 mg/mL was administered orally once a day (10 mL/kg).

[9] = group 2 (0.5 mg/mL, 10 mL/kg orally once a day)
[10] = group 3 (2 mg/mL, 10 mL/kg orally once a day)
[11] = group 2: 0.5 mg/mL, day 14 after initiation of test
[12] = group 2: 0.5 mg/mL, day 28 after initiation of test
[13] = group 3: 2 mg/mL, day 14 after initiation of test
[14] = group 3: 2 mg/mL, day 28 after initiation of test

For `O=C(O)c1cc(C(=O)O)c2c(n1)C(=O)C(=O)c1cc(C(=O)O)[nH]c1-2.[Na].[Na]` [PQQ disodium salt, pyrroloquinoline quinone disodium salt], the Insulin concentration ([1]; group 2: 0.5 mg/mL) was 4.88 ± 0.75 ng/mL, the Insulin concentration ([1]; group 3: 2 mg/mL) was 4.4 ± 0.66 ng/mL and the “Serum insulin concentrations compared with group 1 (0.5% MC)” value ([1]; groups 2 and 3 (0.5 and 2 mg/mL, 10 mL/kg orally once a day), day 32) was “lower than those of group 1”. The Blood glucose level ([2]; group 2: 0.5 mg/mL, 0 minute) was 281.3 ± 16.3 mg/dL, the Blood glucose level ([2]; group 2: 0.5 mg/mL, 120 minutes) was 522.0 ± 22.9 mg/dL and the Blood glucose level ([2]; group 3: 2 mg/mL, 0 minute) was 303.4 ± 25.9 mg/dL. For the same compound, the Blood glucose level ([2]; group 3: 2 mg/mL, 120 minutes) was 489.3 ± 47.5 mg/dL, the “Blood glucose levels in glucose tolerance test compared with group 1 (0.5% MC)” value ([2]; groups 2 and 3 (0.5 and 2 mg/mL, 10 mL/kg orally once a day), 120 minutes after glucose) was “lower than those of group 1” and the Blood glucose level ([3]; group 2: 0.5 mg/mL) was 617.7 ± 39.1 mg/dL. For the same compound, the Blood glucose level ([3]; group 3: 2 mg/mL, *p < 0.05 with respect to group 1) was 575.6 ± 33.3* mg/dl, the “Fasting blood glucose levels compared with group 1 (0.5% MC)” value [3, 9] was “lower than those of group 1” and the “Fasting blood glucose levels compared with group 1 (0.5% MC)” value [3, 10] was “significantly lower than those of group 1”. The “Non-fasting blood glucose levels compared with group 1 (0.5% MC)” value ([4]; groups 2 and 3 (0.5 and 2 mg/mL, 10 mL/kg orally once a day), day 14 and day 28) was “lower than those of group 1”, the Blood glucose level [4, 11] was 427.7 ± 11.4 mg/dL and the Blood glucose level [4, 12] was 531.5 ± 12.3 mg/dL. The Blood glucose level [4, 13] was 405.7 ± 24.1 mg/dL, the Blood glucose level [4, 14] was 546.1 ± 26.0 mg/dL and the “Overall effect on insulin resistance, type II diabetes and body weight” value [5] was “exerts an effect of improving insulin resistance and a therapeutic effect on type II diabetes without body weight gain”. For the same compound, the “Overall effect on type II diabetes” value ([6]; Test Example 2, model mice with a gene mutation differing from test example 1) was “exerts a therapeutic effect on type II diabetes”, the Blood glucose level ([6]; group 2: 0.5 mg/mL, 0 minutes) was 116.7 ± 10.1 mg/dL and the Blood glucose level ([6]; group 2: 0.5 mg/mL, 30 minutes, ***p < 0.001 with respect to group 1) was 274.9 ± 8.4*** mg/dl. The Blood glucose level ([6]; group 2: 0.5 mg/mL, 60 minutes, *p < 0.05 with respect to group 1) was 264.6 ± 7.6* mg/dl, the Blood glucose level ([6]; group 2: 0.5 mg/mL, 120 minutes, **p < 0.01 with respect to group 1) was 184.3 ± 7.8** mg/dl and the Blood glucose level ([6]; group 3: 2 mg/mL, 0 minutes) was 117.0 ± 12.2 mg/dL. For the same compound, the Blood glucose level ([6]; group 3: 2 mg/mL, 30 minutes) was 300.0 ± 24.1 mg/dL, the Blood glucose level ([6]; group 3: 2 mg/mL, 60 minutes) was 261.6 ± 25.6 mg/dL and the Blood glucose level ([6]; group 3: 2 mg/mL, 120 minutes) was 187.4 ± 20.3 mg/dL. The “Blood glucose levels in glucose tolerance test compared with group 1 (0.5% MC)” value [6, 9] was “significantly lower than those of group 1”, the “Blood glucose levels in glucose tolerance test compared with group 1 (0.5% MC)” value [6, 10] was “lower than those of group 1” and the “Serum insulin concentrations compared with group 1 (0.5% MC)” value ([7]; groups 2 and 3 (0.5 and 2 mg/mL, 10 mL/kg orally once a day), day 14 and 28) was “lower than those of group 1”. The Serum insulin concentration [7, 11] was 4.02 ± 0.75 ng/mL, the Serum insulin concentration [7, 12] was 3.02 ± 0.47 ng/mL and the Serum insulin concentration [7, 13] was 6.23 ± 1.69 ng/mL. The Serum insulin concentration [7, 14] was 4.82 ± 1.81 ng/mL, the Body weight ([8]; group 2: 0.5 mg/mL in 0.5% MC, day 0 (test initiated)) was 29.90 ± 0.37 g and the Body weight ([8]; group 2: 0.5 mg/mL in 0.5% MC, day 31) was 37.18 ± 0.65 g. The Body weight ([8]; group 3: 2 mg/mL in 0.5% MC, day 0 (test initiated)) was 29.93 ± 0.51 g, the Body weight ([8]; group 3: 2 mg/mL in 0.5% MC, day 31) was 39.01 ± 1.07 g and the “Body weights compared with group 1 (0.5% MC)” value ([8]; groups 2 and 3 (0.5 and 2 mg/mL, 10 mL/kg orally once a day), after completion of the test) was “almost the same as those of group 1”.
